According to article PMC5622171 (Nature Communications, 2017):

Tests used:
Experiment in all cases: KINOMEscan kinase profiling
Assay type in all cases: binding
CSNK1G1 = biological target: T1, CSNK1G1 (Homo sapiens, UniProt Q9HCP0)
T1 construct: purchased DiscoverX (Ambit Biosciences) KINOMEscan
Outline: (§1)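 KINOMEscan profiling followed a published protocol. Kinases whose inhibition exceeded a set cut-off were then tested in a dilution series beginning at 30 µM.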

DYRK1A = biological target: T2, DYRK1A (Homo sapiens, UniProt Q13627); details: read-out: %Inhibition by 10 μM SPA70
T2 construct: purchased DiscoverX (Ambit Biosciences) KINOMEscan
Outline: as §1

ERK3 = biological target: T3, ERK3 (Homo sapiens, UniProt Q16659); details: read-out: %Inhibition by 10 μM SPA70
T3 construct: purchased DiscoverX (Ambit Biosciences) KINOMEscan
Outline: as §1

RIOK1 = biological target: T4, RIOK1 (Homo sapiens, UniProt Q9BRS2); details: read-out: %Inhibition by 10 μM SPA70
T4 construct: purchased DiscoverX (Ambit Biosciences) KINOMEscan
Outline: as §1

LIMK1 = biological target: T5, LIMK1 (Homo sapiens, UniProt P53667); details: read-out: %Inhibition by 10 μM SPA70
T5 construct: purchased DiscoverX (Ambit Biosciences) KINOMEscan
Outline: as §1

ZAP70 = biological target: T6, ZAP70 (Homo sapiens, UniProt P43403); details: read-out: %Inhibition by 10 μM SPA70
T6 construct: purchased DiscoverX (Ambit Biosciences) KINOMEscan
Outline: as §1

DYRK1B = biological target: T7, DYRK1B (Homo sapiens, UniProt Q9Y463); details: read-out: %Inhibition by 10 μM SPA70
T7 construct: purchased DiscoverX (Ambit Biosciences) KINOMEscan
Outline: as §1

MAST1 = biological target: T8, MAST1 (Homo sapiens, UniProt Q9Y2H9); details: read-out: %Inhibition by 10 μM SPA70
T8 construct: purchased DiscoverX (Ambit Biosciences) KINOMEscan
Outline: as §1

CDK7 = biological target: T9, CDK7 (Homo sapiens, UniProt P50613); details: read-out: %Inhibition by 10 μM SPA70
T9 construct: purchased DiscoverX (Ambit Biosciences) KINOMEscan
Outline: as §1

LOK = biological target: T10, LOK (Homo sapiens, UniProt O94804)
T10 construct: purchased DiscoverX (Ambit Biosciences) KINOMEscan
Outline: as §1

ERK8 = biological target: T11, ERK8 (Homo sapiens, UniProt Q8TD08); details: read-out: %Inhibition by 10 μM SPA70
T11 construct: purchased DiscoverX (Ambit Biosciences) KINOMEscan
Outline: as §1

[1] = biological target: T12, TYK2(JH2domain-pseudokinase) (Homo sapiens, UniProt P29597)
T12 construct: TYK2(JH2domain-pseudokinase); purchased DiscoverX (Ambit Biosciences) KINOMEscan
Outline: as §1

DDR1 = biological target: T13, DDR1 (Homo sapiens, UniProt Q08345); details: read-out: %Inhibition by 10 μM SPA70
T13 construct: purchased DiscoverX (Ambit Biosciences) KINOMEscan
Outline: as §1

PFTK1 = biological target: T14, PFTK1 (Homo sapiens, UniProt O94921)
T14 construct: purchased DiscoverX (Ambit Biosciences) KINOMEscan
Outline: as §1

PAK7 = biological target: T15, PAK7 (Homo sapiens, UniProt Q9P286); details: read-out: %Inhibition by 10 μM SPA70
T15 construct: purchased DiscoverX (Ambit Biosciences) KINOMEscan
Outline: as §1

AMPK-alpha1 = biological target: T16, AMPK-alpha1 (Homo sapiens, UniProt Q13131); details: read-out: %Inhibition by 10 μM SPA70
T16 construct: purchased DiscoverX (Ambit Biosciences) KINOMEscan
Outline: as §1

EPHA1 = biological target: T17, EPHA1 (Homo sapiens, UniProt P21709); details: read-out: %Inhibition by 10 μM SPA70
T17 construct: purchased DiscoverX (Ambit Biosciences) KINOMEscan
Outline: as §1

NEK6 = biological target: T18, NEK6 (Homo sapiens, UniProt Q9HC98); details: read-out: %Inhibition by 10 μM SPA70
T18 construct: purchased DiscoverX (Ambit Biosciences) KINOMEscan
Outline: as §1

TLK2 = biological target: T19, TLK2 (Homo sapiens, UniProt Q86UE8); details: read-out: %Inhibition by 10 μM SPA70
T19 construct: purchased DiscoverX (Ambit Biosciences) KINOMEscan
Outline: as §1

MAP3K2 = biological target: T20, MAP3K2 (Homo sapiens, UniProt Q9Y2U5); details: read-out: %Inhibition by 10 μM SPA70
T20 construct: purchased DiscoverX (Ambit Biosciences) KINOMEscan
Outline: as §1

PIK4CB = biological target: T21, PIK4CB (Homo sapiens, UniProt Q9UBF8); details: read-out: %Inhibition by 10 μM SPA70
T21 construct: purchased DiscoverX (Ambit Biosciences) KINOMEscan
Outline: as §1

SGK3 = biological target: T22, SGK3 (Homo sapiens, UniProt Q96BR1); details: read-out: %Inhibition by 10 μM SPA70
T22 construct: purchased DiscoverX (Ambit Biosciences) KINOMEscan
Outline: as §1

NEK2 = biological target: T23, NEK2 (Homo sapiens, UniProt P51955); details: read-out: %Inhibition by 10 μM SPA70
T23 construct: purchased DiscoverX (Ambit Biosciences) KINOMEscan
Outline: as §1

CHEK1 = biological target: T24, CHEK1 (Homo sapiens, UniProt O14757)
T24 construct: purchased DiscoverX (Ambit Biosciences) KINOMEscan
Outline: as §1

[2] = biological target: T25, RSK1(Kin.Dom.1-N-terminal) (Homo sapiens, UniProt Q15418); details: read-out: %Inhibition by 10 μM SPA70
T25 construct: RSK1(Kin.Dom.1-N-terminal); purchased DiscoverX (Ambit Biosciences) KINOMEscan
Outline: as §1

[3] = biological target: T26, JAK1(JH1domain-catalytic) (Homo sapiens, UniProt P23458)
T26 construct: JAK1(JH1domain-catalytic); purchased DiscoverX (Ambit Biosciences) KINOMEscan
Outline: as §1

DRAK1 = biological target: T27, DRAK1 (Homo sapiens, UniProt Q9UEE5); details: read-out: %Inhibition by 10 μM SPA70
T27 construct: purchased DiscoverX (Ambit Biosciences) KINOMEscan
Outline: as §1

DLK = biological target: T28, DLK (Homo sapiens, UniProt Q12852)
T28 construct: purchased DiscoverX (Ambit Biosciences) KINOMEscan
Outline: as §1

PYK2 = biological target: T29, PYK2 (Homo sapiens, UniProt Q14289); details: read-out: %Inhibition by 10 μM SPA70
T29 construct: purchased DiscoverX (Ambit Biosciences) KINOMEscan
Outline: as §1

PIK3C2G = biological target: T30, PIK3C2G (Homo sapiens, UniProt O75747); details: read-out: %Inhibition by 10 μM SPA70
T30 construct: purchased DiscoverX (Ambit Biosciences) KINOMEscan
Outline: as §1

TNNI3K = biological target: T31, TNNI3K (Homo sapiens, UniProt Q59H18); details: read-out: %Inhibition by 10 μM SPA70
T31 construct: purchased DiscoverX (Ambit Biosciences) KINOMEscan
Outline: as §1

PRKR = biological target: T32, PRKR (Homo sapiens, UniProt P19525)
T32 construct: purchased DiscoverX (Ambit Biosciences) KINOMEscan
Outline: as §1

CDK11 = biological target: T33, CDK11 (Homo sapiens, UniProt Q9BWU1)
T33 construct: purchased DiscoverX (Ambit Biosciences) KINOMEscan
Outline: as §1

MAPKAPK5 = biological target: T34, MAPKAPK5 (Homo sapiens, UniProt Q8IW41); details: read-out: %Inhibition by 10 μM SPA70
T34 construct: purchased DiscoverX (Ambit Biosciences) KINOMEscan
Outline: as §1

CSNK2A1 = biological target: T35, CSNK2A1 (Homo sapiens, UniProt P68400); details: read-out: %Inhibition by 10 μM SPA70
T35 construct: purchased DiscoverX (Ambit Biosciences) KINOMEscan
Outline: as §1

SIK2 = biological target: T36, SIK2 (Homo sapiens, UniProt Q9H0K1); details: read-out: %Inhibition by 10 μM SPA70
T36 construct: purchased DiscoverX (Ambit Biosciences) KINOMEscan
Outline: as §1

TNK1 = biological target: T37, TNK1 (Homo sapiens, UniProt Q13470); details: read-out: %Inhibition by 10 μM SPA70
T37 construct: purchased DiscoverX (Ambit Biosciences) KINOMEscan
Outline: as §1

STK16 = biological target: T38, STK16 (Homo sapiens, UniProt O75716); details: read-out: %Inhibition by 10 μM SPA70
T38 construct: purchased DiscoverX (Ambit Biosciences) KINOMEscan
Outline: as §1

TGFBR1 = biological target: T39, TGFBR1 (Homo sapiens, UniProt P36897); details: read-out: %Inhibition by 10 μM SPA70
T39 construct: purchased DiscoverX (Ambit Biosciences) KINOMEscan
Outline: as §1

MYO3A = biological target: T40, MYO3A (Homo sapiens, UniProt Q8NEV4); details: read-out: %Inhibition by 10 μM SPA70
T40 construct: purchased DiscoverX (Ambit Biosciences) KINOMEscan
Outline: as §1

PKN2 = biological target: T41, PKN2 (Homo sapiens, UniProt Q16513); details: read-out: %Inhibition by 10 μM SPA70
T41 construct: purchased DiscoverX (Ambit Biosciences) KINOMEscan
Outline: as §1

T18 sequence (Q9HC98 whole entry): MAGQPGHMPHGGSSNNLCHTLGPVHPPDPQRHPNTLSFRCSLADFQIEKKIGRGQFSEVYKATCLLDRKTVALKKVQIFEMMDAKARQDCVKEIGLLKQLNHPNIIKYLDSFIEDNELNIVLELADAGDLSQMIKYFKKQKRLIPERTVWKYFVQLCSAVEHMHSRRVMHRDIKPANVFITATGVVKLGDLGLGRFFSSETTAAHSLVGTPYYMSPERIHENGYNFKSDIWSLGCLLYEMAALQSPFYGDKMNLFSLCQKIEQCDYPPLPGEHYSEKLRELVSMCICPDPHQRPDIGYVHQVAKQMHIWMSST
T28 sequence (Q12852 whole entry): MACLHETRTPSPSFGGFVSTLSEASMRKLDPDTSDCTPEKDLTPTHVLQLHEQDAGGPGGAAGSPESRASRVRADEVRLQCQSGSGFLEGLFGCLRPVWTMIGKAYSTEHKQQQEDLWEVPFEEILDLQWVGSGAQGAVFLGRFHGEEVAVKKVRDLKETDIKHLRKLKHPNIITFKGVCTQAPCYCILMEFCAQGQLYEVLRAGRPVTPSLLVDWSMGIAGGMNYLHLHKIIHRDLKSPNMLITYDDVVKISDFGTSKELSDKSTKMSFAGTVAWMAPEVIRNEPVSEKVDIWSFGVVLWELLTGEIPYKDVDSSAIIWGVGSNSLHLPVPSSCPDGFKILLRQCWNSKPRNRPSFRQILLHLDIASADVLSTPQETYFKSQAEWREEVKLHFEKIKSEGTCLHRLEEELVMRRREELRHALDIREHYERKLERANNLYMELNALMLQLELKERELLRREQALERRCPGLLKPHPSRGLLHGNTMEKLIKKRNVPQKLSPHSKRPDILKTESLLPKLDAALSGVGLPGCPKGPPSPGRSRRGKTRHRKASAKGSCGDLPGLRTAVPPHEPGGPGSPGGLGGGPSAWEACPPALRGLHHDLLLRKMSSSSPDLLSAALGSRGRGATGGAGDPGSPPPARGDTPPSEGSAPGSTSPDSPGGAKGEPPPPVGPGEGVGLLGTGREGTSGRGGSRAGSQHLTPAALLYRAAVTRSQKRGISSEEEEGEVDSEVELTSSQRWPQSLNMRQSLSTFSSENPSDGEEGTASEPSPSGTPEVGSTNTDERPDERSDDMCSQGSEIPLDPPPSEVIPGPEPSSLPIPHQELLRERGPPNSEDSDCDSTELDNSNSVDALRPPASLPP
T11 sequence (Q8TD08 whole entry): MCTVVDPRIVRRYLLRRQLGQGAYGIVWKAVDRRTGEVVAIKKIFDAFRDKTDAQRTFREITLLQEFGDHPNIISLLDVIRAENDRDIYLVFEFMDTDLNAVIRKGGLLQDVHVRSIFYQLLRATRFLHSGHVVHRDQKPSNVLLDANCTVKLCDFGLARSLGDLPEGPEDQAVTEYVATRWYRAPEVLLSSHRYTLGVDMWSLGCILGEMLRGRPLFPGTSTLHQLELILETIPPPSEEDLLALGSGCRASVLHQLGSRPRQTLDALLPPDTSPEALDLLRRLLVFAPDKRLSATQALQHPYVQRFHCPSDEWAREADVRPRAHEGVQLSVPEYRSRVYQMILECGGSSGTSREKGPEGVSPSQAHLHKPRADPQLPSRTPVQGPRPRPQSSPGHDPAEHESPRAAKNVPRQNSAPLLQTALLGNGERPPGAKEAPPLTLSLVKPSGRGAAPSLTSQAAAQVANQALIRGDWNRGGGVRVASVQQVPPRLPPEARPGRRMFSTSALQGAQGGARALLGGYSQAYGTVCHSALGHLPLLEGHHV
T24 sequence (O14757 whole entry): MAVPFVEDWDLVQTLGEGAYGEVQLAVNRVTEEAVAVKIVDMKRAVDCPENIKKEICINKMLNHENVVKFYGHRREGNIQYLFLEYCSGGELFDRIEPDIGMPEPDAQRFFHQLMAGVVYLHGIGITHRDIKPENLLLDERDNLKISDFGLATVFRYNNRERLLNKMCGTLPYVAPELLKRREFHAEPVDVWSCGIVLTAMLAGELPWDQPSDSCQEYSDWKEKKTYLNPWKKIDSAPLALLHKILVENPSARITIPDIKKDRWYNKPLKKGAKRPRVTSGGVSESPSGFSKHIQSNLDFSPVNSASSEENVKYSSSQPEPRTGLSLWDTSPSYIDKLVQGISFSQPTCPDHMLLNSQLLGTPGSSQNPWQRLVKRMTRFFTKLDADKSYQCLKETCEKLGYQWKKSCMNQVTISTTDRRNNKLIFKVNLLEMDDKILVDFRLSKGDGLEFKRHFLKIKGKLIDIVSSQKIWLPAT
T23 sequence (P51955 whole entry): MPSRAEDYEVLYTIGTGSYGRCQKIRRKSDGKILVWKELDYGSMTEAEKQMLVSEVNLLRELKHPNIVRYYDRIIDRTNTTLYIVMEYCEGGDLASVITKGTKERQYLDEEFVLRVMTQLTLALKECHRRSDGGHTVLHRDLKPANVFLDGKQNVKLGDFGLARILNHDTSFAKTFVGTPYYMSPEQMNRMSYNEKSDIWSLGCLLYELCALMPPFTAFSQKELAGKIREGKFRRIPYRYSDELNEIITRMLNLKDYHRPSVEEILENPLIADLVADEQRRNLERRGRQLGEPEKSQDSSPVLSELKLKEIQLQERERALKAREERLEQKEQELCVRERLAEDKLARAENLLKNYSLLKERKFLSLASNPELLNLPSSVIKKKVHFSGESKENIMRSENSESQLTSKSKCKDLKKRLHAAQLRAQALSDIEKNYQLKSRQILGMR
T25 sequence (Q15418 1-391 limits assumed): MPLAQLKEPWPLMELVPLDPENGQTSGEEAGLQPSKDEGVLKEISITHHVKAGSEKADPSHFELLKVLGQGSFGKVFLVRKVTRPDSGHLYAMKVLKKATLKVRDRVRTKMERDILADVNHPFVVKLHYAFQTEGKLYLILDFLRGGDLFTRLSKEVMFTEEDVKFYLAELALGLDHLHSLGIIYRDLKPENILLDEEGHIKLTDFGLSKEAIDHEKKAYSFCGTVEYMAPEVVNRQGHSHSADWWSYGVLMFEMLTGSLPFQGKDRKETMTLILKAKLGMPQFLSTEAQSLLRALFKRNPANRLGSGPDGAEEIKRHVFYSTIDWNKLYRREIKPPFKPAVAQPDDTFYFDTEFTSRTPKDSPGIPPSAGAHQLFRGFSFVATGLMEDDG
T8 sequence (Q9Y2H9 whole entry): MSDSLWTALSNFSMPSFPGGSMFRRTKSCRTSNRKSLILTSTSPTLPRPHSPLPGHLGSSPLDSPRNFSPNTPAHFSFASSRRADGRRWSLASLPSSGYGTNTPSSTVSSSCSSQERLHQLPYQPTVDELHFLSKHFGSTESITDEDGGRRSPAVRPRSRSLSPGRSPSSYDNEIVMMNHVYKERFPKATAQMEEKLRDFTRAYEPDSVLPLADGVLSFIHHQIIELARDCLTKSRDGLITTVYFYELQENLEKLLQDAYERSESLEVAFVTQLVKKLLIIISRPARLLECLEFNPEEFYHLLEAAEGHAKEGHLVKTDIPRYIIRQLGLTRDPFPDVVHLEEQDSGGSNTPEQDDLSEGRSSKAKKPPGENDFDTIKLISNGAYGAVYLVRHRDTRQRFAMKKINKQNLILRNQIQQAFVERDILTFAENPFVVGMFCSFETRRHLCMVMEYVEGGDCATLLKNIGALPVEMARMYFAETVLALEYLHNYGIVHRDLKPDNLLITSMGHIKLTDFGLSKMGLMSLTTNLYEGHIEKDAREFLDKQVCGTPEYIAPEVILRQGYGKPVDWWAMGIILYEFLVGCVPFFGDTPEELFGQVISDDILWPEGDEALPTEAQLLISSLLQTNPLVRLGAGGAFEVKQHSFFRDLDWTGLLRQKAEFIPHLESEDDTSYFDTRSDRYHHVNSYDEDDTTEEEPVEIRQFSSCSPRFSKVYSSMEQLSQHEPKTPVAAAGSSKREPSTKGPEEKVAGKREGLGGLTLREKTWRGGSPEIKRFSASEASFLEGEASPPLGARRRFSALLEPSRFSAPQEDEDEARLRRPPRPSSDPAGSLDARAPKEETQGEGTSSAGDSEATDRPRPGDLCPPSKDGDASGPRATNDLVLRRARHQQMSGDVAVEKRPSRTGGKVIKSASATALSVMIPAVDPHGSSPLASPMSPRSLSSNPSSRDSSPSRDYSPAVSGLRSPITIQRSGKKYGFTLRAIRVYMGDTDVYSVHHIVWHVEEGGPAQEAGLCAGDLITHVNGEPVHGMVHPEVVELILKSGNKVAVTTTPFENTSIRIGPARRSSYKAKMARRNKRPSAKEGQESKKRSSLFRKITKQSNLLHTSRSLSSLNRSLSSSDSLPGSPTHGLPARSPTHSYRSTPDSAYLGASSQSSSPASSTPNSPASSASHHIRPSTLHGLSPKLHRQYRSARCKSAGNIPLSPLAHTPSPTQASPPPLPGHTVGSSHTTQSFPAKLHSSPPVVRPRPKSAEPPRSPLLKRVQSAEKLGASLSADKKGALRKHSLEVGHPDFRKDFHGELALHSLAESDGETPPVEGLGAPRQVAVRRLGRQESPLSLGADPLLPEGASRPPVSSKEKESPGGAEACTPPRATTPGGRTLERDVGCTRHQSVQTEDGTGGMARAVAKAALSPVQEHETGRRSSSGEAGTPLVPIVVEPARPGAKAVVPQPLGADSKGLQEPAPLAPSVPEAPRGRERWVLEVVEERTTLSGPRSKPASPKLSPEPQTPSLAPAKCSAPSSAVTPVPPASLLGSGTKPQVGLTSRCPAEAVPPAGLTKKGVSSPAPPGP
T26 sequence (P23458 875-1154 limits assumed): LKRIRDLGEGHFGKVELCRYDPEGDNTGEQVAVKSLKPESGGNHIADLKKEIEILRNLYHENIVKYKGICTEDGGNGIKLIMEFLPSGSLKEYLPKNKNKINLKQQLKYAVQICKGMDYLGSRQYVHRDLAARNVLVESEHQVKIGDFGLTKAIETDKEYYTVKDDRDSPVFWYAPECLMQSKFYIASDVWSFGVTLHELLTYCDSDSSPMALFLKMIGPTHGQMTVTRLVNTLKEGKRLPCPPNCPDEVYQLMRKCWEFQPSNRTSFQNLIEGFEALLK

COc1ccc(OC)c(-n2nnc(S(=O)(=O)c3ccc(C(C)(C)C)cc3)c2C)c1 [SPA70]
%Inhibition by 10 μM SPA70 (CSNK1G1): 0% | inhibition at 10 µM (DYRK1A): 0% | inhibition at 10 µM (ERK3): 11% | inhibition at 10 µM (RIOK1): 47% | inhibition at 10 µM (LIMK1): 0% | inhibition at 10 µM (ZAP70): 22% | inhibition at 10 µM (DYRK1B): 0% | inhibition at 10 µM (MAST1): 0% | inhibition at 10 µM (CDK7): 19% | %Inhibition by 10 μM SPA70 (LOK): 0% | inhibition at 10 µM (ERK8): 0% | %Inhibition by 10 μM SPA70 [1]: 0% | inhibition at 10 µM (DDR1): 0% | %Inhibition by 10 μM SPA70 (PFTK1): 0% | inhibition at 10 µM (PAK7): 26% | inhibition at 10 µM (AMPK-alpha1): 0% | inhibition at 10 µM (EPHA1): 0% | inhibition at 10 µM (NEK6): 0% | inhibition at 10 µM (TLK2): 0% | inhibition at 10 µM (MAP3K2): 15% | inhibition at 10 µM (PIK4CB): 27% | inhibition at 10 µM (SGK3): 0% | inhibition at 10 µM (NEK2): 4% | %Inhibition by 10 μM SPA70 (CHEK1): 8% | inhibition at 10 µM [2]: 40% | %Inhibition by 10 μM SPA70 [3]: 19% | inhibition at 10 µM (DRAK1): 7% | %Inhibition by 10 μM SPA70 (DLK): 4% | inhibition at 10 µM (PYK2): 2% | inhibition at 10 µM (PIK3C2G): 0% | inhibition at 10 µM (TNNI3K): 0% | %Inhibition by 10 μM SPA70 (PRKR): 26% | %Inhibition by 10 μM SPA70 (CDK11): 0% | inhibition at 10 µM (MAPKAPK5): 12% | inhibition at 10 µM (CSNK2A1): 15% | inhibition at 10 µM (SIK2): 0% | inhibition at 10 µM (TNK1): 0% | inhibition at 10 µM (STK16): 0% | inhibition at 10 µM (TGFBR1): 20% | inhibition at 10 µM (MYO3A): 0% | inhibition at 10 µM (PKN2): 0%
